From patent US11773086B2, “Fungal modulators” (TRUSTEES OF BOSTON UNIVERSITY, priority 2020, dated 2023)

How the values were obtained:
[1] = test system: C. albicans (SN95); assay: Azoffluxin dose-response with background fluconazole; assay type: cell-based, Candida albicans; settings: fluconazole-sensitive laboratory strain SN95, background FLC 4 μg/mL
Protocol: (§1) FIGS. 2A-2E illustrate the above-described screening of the BU-CMD which identified azoffluxin as a fluconazole (FLC) potentiator against C. auris. […] Growth, as determined by optical density at 600 nm (OD600), is plotted in the presence of each CMD compound alone on the y-axis and in combination with FLC on the x-axis. Dotted lines represent 7-median absolute deviations from the median for each condition. […] FIG. 2B depicts the synergistic interactions. […] Growth was measured by the OD600 and normalized to the no drug control (see color bar). The fractional inhibitory concentration index (FICI) was calculated to determine the chemical interaction, with a value below 0.5 indicating synergy. […] FIG. 2D depicts FLC Etest strips in the presence and absence of 50 μM azoffluxin. […]
(§2) Compound potency was assessed alone by dose response assays or in combination with another compound by dose-response matrixes in 96-well plates, or 384-well, flat-bottom, microtiter plates (Corning) as previously described. […] Growth was quantified by measuring OD600 and corrected for medium background. All strains were assessed in biological duplicate experiments with technical duplicates. […] For dose-response matrixes fractional inhibitory concentration index at 90% growth inhibition (FICI90) was calculated as previously described. […]

[2] = test system: C. auris efflux; assay: Nile red accumulation assay (flow cytometry); assay type: cell-based, Candida auris
Protocol: FIGS. 5A, 5B and 6 illustrate that azoffluxin increases fluconazole (FLC) bioavailability by inhibiting Cdr1-mediated efflux in C. auris. FIG. 5A show C. auris strains grown to exponential phase and treated with 50 μM azoffluxin for 10 minutes when indicated, followed by addition of Nile red for 20 minutes. Cells were then imaged on the DIC and DsRed channels at equivalent exposure times. FIG. 5B: depicts a flow cytometer and histograms of the cells, showing the fluorescence on the PE channel per event for ˜20,000 events. […] FIG. 6 illustrates azoffluxin increases fluconazole (FLC) bioavailability by inhibiting Cdr1-mediated efflux in C. auris. Dose response assays were conducted with a C. auris parental strain, a strain with the efflux pump gene CDR1 deleted, and a strain with the efflux pump CDR4-1 deleted. FLC was titered in a two-fold dilution on the x-axis in the absence and presence of 50 μM azoffluxin. Growth was measured at 48 hours using OD600 and normalized to a no drug control well (see color bar).
Cellular efflux was determined by measuring Nile red accumulation, as previously described. Cells were subcultured from an OD600 0.1 in YPD for 4 hours until exponential phase was reached. […] To quantify fluorescence, a CytoFlex Flow Cytometer (Beckman Coulter) was used. […] Each sample was run using the CytExpert Software until ˜20,000 events had been recorded. […]

[3] = test system: C. glabrata (BG2); assay: Azoffluxin dose-response with background fluconazole; assay type: cell-based, Candida glabrata
Protocol: as §1, §2

[4] = Stability and activity in plasma; assay type: in vitro ADME
[5] = test system: C. auris; assay: microbe, parasite or virus in culture; assay type: cell-based, Candida auris; settings: 50 μM azoffluxin, Etest
Protocol: FIGS. 2A-2E illustrate the above-described screening of the BU-CMD which identified azoffluxin as a fluconazole (FLC) potentiator against C. auris. […] Growth, as determined by optical density at 600 nm (OD600), is plotted in the presence of each CMD compound alone on the y-axis and in combination with FLC on the x-axis. Dotted lines represent 7-median absolute deviations from the median for each condition. […] FIG. 2B depicts the synergistic interactions. […] Growth was measured by the OD600 and normalized to the no drug control (see color bar). The fractional inhibitory concentration index (FICI) was calculated to determine the chemical interaction, with a value below 0.5 indicating synergy. […] FIG. 2D depicts FLC Etest strips in the presence and absence of 50 μM azoffluxin. A total of 1×10^6 C. auris cells were added to YPD agar plates, the E-test strip was added, and plates were incubated at 30° C. for 24 hours prior to imaging. FIG. 2. […] Dose-response assay where a two-fold dilution of azoffluxin was titered starting from 50 μM. Indicated titrations have a background concentration of FLC of 32 μg/mL, 4 μg/mL, 0.25 μg/mL, and 0.5 μg/mL for C. auris Ci6684 (Erg11Y132F), C. albicans (SN95), C. glabrata (BG2) or S. cerevisiae (BY4741), respectively. […] Dose response assays were incubated for 48 hours at 30° C. in RPMI. Growth in each well was plotted by the relative optical density to the respective no drug control (See color bar in FIG. 2B).
Compound potency was assessed alone by dose response assays or in combination with another compound by dose-response matrixes in 96-well plates, or 384-well, flat-bottom, microtiter plates (Corning) as previously described. Plates were incubated at 30° C. for the indicated time period. Growth was quantified by measuring OD600 and corrected for medium background. All strains were assessed in biological duplicate experiments with technical duplicates. […] For dose-response matrixes fractional inhibitory concentration index at 90% growth inhibition (FICI90) was calculated as previously described. […]

[6] = molecular target: T1, MRP1 (ABCC1) (Homo sapiens, UniProt P33527); assay: Calcein AM accumulation in MRP1-overexpressing HEK293 cells (flow cytometry); assay type: cell-based, mammalian; settings: Calcein AM 2.5 μg/mL
T1 construct: expressed in transfected cells; host or cells: HEK293
Protocol: P-gp overexpressing HEK293 cell lines were used to determine if azoffluxin treatment leads to a greater accumulation of fluorescent substrates (MFI) as determined by flow cytometry.
MDR1 (ABCB1) and MRP1 (ABCC1) was assessed using the fluorescent dyes rhodamine 6G (0.5 μg/mL) and Calcein AM (2.5 μg/mL), for each pump respectively, and the known inhibitor controls tariquidar (60 nM) and MK571 (30 μM) for each pump respectively. Listed data is shown by FIG. 12E (R6G) and FIG. 12F (Cal).

T1 sequence (P33527 whole entry): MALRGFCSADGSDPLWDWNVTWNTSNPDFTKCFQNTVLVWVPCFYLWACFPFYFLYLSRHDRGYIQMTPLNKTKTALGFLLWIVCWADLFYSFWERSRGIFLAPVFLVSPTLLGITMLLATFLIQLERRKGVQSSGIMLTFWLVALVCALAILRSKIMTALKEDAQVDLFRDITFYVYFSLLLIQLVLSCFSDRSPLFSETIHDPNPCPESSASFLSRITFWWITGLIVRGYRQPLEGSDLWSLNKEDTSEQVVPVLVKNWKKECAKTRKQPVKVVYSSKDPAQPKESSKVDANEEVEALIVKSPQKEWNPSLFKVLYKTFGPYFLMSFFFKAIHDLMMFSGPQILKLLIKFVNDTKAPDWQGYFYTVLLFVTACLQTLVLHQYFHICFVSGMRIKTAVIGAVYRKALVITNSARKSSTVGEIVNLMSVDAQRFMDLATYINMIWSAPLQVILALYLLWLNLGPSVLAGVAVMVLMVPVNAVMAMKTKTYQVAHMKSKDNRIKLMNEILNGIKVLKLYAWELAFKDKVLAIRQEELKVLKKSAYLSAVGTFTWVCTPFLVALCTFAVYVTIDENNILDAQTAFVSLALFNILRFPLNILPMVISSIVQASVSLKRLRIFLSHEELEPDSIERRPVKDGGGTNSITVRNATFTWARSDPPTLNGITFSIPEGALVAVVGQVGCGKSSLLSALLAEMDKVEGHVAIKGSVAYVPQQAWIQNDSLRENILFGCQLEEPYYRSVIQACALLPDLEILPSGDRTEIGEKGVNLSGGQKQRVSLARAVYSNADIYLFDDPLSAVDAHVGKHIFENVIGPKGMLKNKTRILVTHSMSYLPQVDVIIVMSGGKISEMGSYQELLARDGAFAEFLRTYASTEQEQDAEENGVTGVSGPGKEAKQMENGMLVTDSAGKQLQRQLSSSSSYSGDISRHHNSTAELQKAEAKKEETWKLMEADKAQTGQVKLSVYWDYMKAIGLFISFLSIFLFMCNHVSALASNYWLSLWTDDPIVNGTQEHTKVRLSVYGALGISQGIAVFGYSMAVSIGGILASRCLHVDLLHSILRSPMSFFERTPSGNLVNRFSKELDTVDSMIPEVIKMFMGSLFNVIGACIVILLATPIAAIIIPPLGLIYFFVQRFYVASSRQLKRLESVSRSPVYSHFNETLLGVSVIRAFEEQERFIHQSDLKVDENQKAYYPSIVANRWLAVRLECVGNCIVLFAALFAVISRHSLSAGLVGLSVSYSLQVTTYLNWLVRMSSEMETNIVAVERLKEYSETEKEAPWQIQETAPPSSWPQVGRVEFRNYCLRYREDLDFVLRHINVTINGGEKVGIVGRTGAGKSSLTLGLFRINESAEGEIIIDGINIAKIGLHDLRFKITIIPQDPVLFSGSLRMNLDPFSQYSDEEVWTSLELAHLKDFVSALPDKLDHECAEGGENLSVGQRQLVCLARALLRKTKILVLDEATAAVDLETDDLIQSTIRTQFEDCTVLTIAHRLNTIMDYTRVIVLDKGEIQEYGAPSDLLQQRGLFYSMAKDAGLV

## C=C(C)C[C@@H](O)COc1cc2c(cc1C1(c3cc4c(cc3OC[C@H](O)CC(=C)C)OCO4)C(=O)Nc3cc(F)ccc31)OCO2 [CMLD012336]
[1]
  enhancement of fluconazole activity: did not enhance the activity of fluconazole
[2]; 50 μM azoffluxin, C. auris Ci6684
  increase in relative cell-associated Nile red signal: 42 fold
[2]; Clade III isolates B11221 and B11222
  increase in Nile red accumulation: 36-40 fold
[3]; C. glabrata, despite increasing Nile red
  enhancement of fluconazole efficacy: did not enhance the efficacy of fluconazole
[3]; fluconazole-sensitive laboratory strain BG2, background FLC 0.25 μg/mL
  enhancement of fluconazole activity: did not enhance the activity of fluconazole
[4]
  stability in plasma: stable and retains activity in plasma
[5]
  fluconazole MIC in presence of azoffluxin: 16 µg/mL
[5]; solid medium
  reduction of fluconazole MIC: > 16 fold
[6]
  increase in calcein AM (Cal): 2.5 fold
